What was measured:
[1] = Heat resistance: viable cell count while bathing at 70° C. in a water bath; format: physicochemical
Description: In order to investigate the heat resistance of lactic-acid bacteria of the present disclosure, samples were obtained at 20 sec, 40 sec, 60 sec, and 80 sec while bathing at 70° C. in a water bath, a viable cell count was taken to thus determine resistance to heat, and the results thereof are shown in Table 2 below and in FIG. 2. In Table 2 and in FIG. 2, a viable cell count is represented as a Log10 CFU/ml value, and the number in parentheses represents the viability (%) compared to the initial count. Each result value is the average of three independent experiments.

[2] = system: IL-6 in mouse macrophage cell line RAW264.7; experiment: IL-6 ELISA, RAW264.7 cells treated with lactic-acid bacteria lysate; format: cell-based; details: lysate 100 μg/ml and 500 μg/ml, 24 hr
Description: (§1) In order to measure the immunological effects of K2, K6 and K8 lactic-acid bacteria, a cytokine quantification experiment using cells was performed. The cells that were used were a mouse macrophage cell line RAW264.7, and the medium used for each cell experiment was a Gibco® Dulbecco's Modified Eagle Medium (DMEM, Gibco, USA) supplemented with 10% fetal bovine serum (Gibco, USA) and 1% penicillin/streptomycin cocktail (Sigma-Aldrich, Germany). RAW264.7 cells cultured at about 80-90% confluency before material treatment were recovered and seeded in an amount of 1×10^6 cells per well of a 24-well plate. After seeding, culture was carried out in an environment of 37° C. and 5% CO2 for 24 hr in order to realize attachment to the 24-well plate and stabilization thereof. Each well was treated with the lactic-acid bacteria lysate at concentrations of 100 μg/ml and 500 μg/ml, and 1 μg/ml of lipopolysaccharide (LPS, Sigma-Aldrich, Germany) was used as a positive control, and an experimental group not treated with any material was used as a negative control. The cells were cultured at 37° C. and 5% CO2 for 24 hr after material treatment, and the cell culture solution was recovered, followed by enzyme-linked immunosorbent assay (ELISA) for IL-6 and TNF-α. Measurement was performed for IL-6 using a Mouse IL-6 Quantikine ELISA Kit (R&D systems, USA) and for TNF-α using a Mouse TNF-alpha Quantikine ELISA Kit (R&D systems, USA).

[3] = system: Gardnerella vaginalis KCTC5096 (GV); experiment: Disinfection power through coculture; format: cell-based; details: coculture 1:1, at 24 hr
Description: (§2) The anti-vaginitis effect of the lactic-acid bacteria of the present disclosure was tested for disinfection power on the vaginitis pathogen through coculture. In the anti-CA experiment, CA at a concentration of about 2.5×10^6 CFU/ml and each of lactic-acid bacteria at a concentration of about 2.5×10^6 CFU/ml were mixed at a ratio of 1:1, and coculture thereof was carried out in a culture medium of YM and MRS mixed at 1:1. In the anti-GV experiment, GV at a concentration of about 1.0×10^8 CFU/ml and each of lactic-acid bacteria at a concentration of about 1.0×10^8 CFU/ml were mixed at a ratio of 1:1 and then inoculated into a 10% horse-serum BHI broth. Each coculture experiment was conducted for 48 hr, and portions of the samples were collected initially and every 24 hr, and a viable cell count was taken through a serial dilution method and a plate-spreading method. In the anti-CA experiment, in order to measure CA alone, a YM plate medium containing ampicillin at a concentration of 100 μg/ml was used. In the anti-GV experiment, CFU was measured by distinguishing the colony forms between GV and lactic-acid bacteria using a 5% rabbit blood BHI plate medium.

[4] = system: Candida albicans KCTC7678 (CA); experiment: Disinfection power through coculture; format: cell-based; details: for disinfection power on CA: coculture 1:1, at 24 hr; for CA in coculture: coculture 1:1, at 48 hr
Description: as §2

[5] = system: Listeria monocytogenes KCTC3569 (LM); experiment: Disc test, clear zone; format: cell-based; details: 35 μl culture solution on 8 mm paper disc, disc diameter subtracted; average of four tests
Description: (§3) In order to confirm the antimicrobial functionality of K2, K6 and K8, the antimicrobial activity of lactic-acid bacteria K2, K6 and K8 against a total of seven types of infectious or opportunistic bacteria, including four types of gram-positive SA, LM, SM, and SS and three types of gram-negative EC, PA, and CS, was determined by measuring clear zones through a disc test. Seven types of bacteria cultured overnight in a BHI plate medium were each suspended in 1× phosphate-buffered saline (PBS) until OD600 of about 0.8 was obtained. Each suspension was absorbed with a sterile cotton swab, spread over an agar medium for an antimicrobial activity test for lactic-acid bacteria, in which BHI and MRS were mixed at a ratio of 1:1, and dried for about 3 min. Each 8 mm paper disc (Advantec, Japan) was attached to the dried test agar medium, and 35 μl of each of K2, K6, and K8 solutions cultured in an MRS broth for about 18 to 20 hr was inoculated to the paper disc, dried for about 3 min, cultured at 37° C. and observed. The size of the clear zone formed after culture was determined in a manner in which the diameter thereof was measured and was calculated after subtracting 8 mm, which is the diameter of the paper disc. The unit for the diameter of the clear zone, which is each numerical value in Table 4, is mm, and each abbreviation is as follows: Staphylococcus aureus KCTC1621 (SA), Listeria monocytogenes KCTC3569 (LM), Streptococcus mutans KCTC3065 (SM), Streptococcus salivarius ATG-P1 (SS), Escherichia coli KCTC1682 (EC), Pseudomonas aeruginosa KCTC2004 (PA), Cronobacter sakazakii KCTC2949 (CS).

[6] = system: Escherichia coli KCTC1682 (EC); experiment: Disc test, clear zone; format: cell-based; details: 35 μl culture solution on 8 mm paper disc, disc diameter subtracted; average of four tests
Description: as §3

[7] = system: Pseudomonas aeruginosa KCTC2004 (PA); experiment: Disc test, clear zone; format: cell-based; details: 35 μl culture solution on 8 mm paper disc, disc diameter subtracted; average of four tests
Description: as §3

[8] = system: Streptococcus mutans KCTC3065 (SM); experiment: Disc test, clear zone; format: cell-based; details: 35 μl culture solution on 8 mm paper disc, disc diameter subtracted; average of four tests
Description: as §3

[9] = system: Staphylococcus aureus KCTC1621 (SA); experiment: Disc test, clear zone; format: cell-based; details: 35 μl culture solution on 8 mm paper disc, disc diameter subtracted; average of four tests
Description: as §3

[10] = system: Streptococcus salivarius ATG-P1 (SS); experiment: Disc test, clear zone; format: cell-based; details: 35 μl culture solution on 8 mm paper disc, disc diameter subtracted; average of four tests
Description: as §3

[11] = system: Cronobacter sakazakii KCTC2949 (CS); experiment: Disc test, clear zone; format: cell-based; details: 35 μl culture solution on 8 mm paper disc, disc diameter subtracted; average of four tests
Description: as §3

[12] = system: TNF-α in mouse macrophage cell line RAW264.7; experiment: TNF-α ELISA, RAW264.7 cells treated with lactic-acid bacteria lysate; format: cell-based; details: lysate 100 μg/ml and 500 μg/ml, 24 hr
Description: as §1

[13] = Initial, average of three independent experiments

Substance | viability compared to the initial count ([1]; 70° C. water bath, 20 sec) | viable cell count ([1]; 70° C. water bath, 20 sec) [Log10 CFU/ml] | viability compared to the initial count ([1]; 70° C. water bath, 40 sec) | viable cell count ([1]; 70° C. water bath, 40 sec) [Log10 CFU/ml] | viability compared to the initial count ([1]; 70° C. water bath, 60 sec) | viable cell count ([1]; 70° C. water bath, 60 sec) [Log10 CFU/ml] | viability compared to the initial count ([1]; Initial) | viable cell count [1, 13] [Log10 CFU/ml] | IL-6 production compared to the control [2] | disinfection power on GV [3] [%] | disinfection power on CA [4] [%] | CA in coculture [4] | diameter of the clear zone LM [5] [mm] | diameter of the clear zone EC [6] [mm] | diameter of the clear zone PA [7] [mm] | diameter of the clear zone SM [8] [mm] | diameter of the clear zone SA [9] [mm] | diameter of the clear zone SS [10] [mm] | diameter of the clear zone CS [11] [mm] | TNF-α production compared to the control [12] | other results
Lactobacillus plantarum ATG-K2 [Lb. plantarum ATG-K2] | (109.65% | 8.99 | (91.33% | 8.92 | (70.95% | 8.80 | (100.00% | 8.95 | induced | 87.37 | 99.03 | completely disappeared | 5.50 ± 0.18 | 3.38 ± 0.21 | 3.75 ± 0.13 | 4.75 ± 0.28 | 5.00 ± 0.18 | 4.13 ± 0.11 | 6.50 ± 0.18 | induced | viability compared to the initial count ([1]; 70° C. water bath, 60 sec, listed as K2): 70.95%
Lactobacillus plantarum ATG-K6 [Lb. plantarum ATG-K6] | (97.27% | 9.43 | (87.46% | 9.38 | (68.88% | 9.28 | (100.00% | 9.44 | induced | 92.50 | 99.49 | completely disappeared | 4.75 ± 0.13 | 3.50 ± 0.18 | 4.00 ± 0.18 | 4.13 ± 0.11 | 4.88 ± 0.21 | 3.13 ± 0.11 | 6.13 ± 0.11 | induced | viability compared to the initial count ([1]; 70° C. water bath, 60 sec, listed as K6): 68.88%
Lactobacillus plantarum ATG-K8 [Lb. plantarum ATG-K8] | (89.67% | 9.49 | (75.26% | 9.41 | (74.32% | 9.41 | (100.00% | 9.55 | induced | 93.71 | 99.53 | completely disappeared | 5.18 ± 0.21 | 3.50 ± 0.18 | 3.88 ± 0.11 | 3.88 ± 0.11 | 4.25 ± 0.13 | 4.00 ± 0.18 | 5.88 ± 0.11 | induced | viability compared to the initial count ([1]; 70° C. water bath, 60 sec, listed as K8): 74.32%
